“Also recorded” adds a separate entry of the source.
Legend:
[1] = biological target: T1, human thioredoxin (Homo sapiens, UniProt P10599); assay: Inhibition of human thioredoxin by disulfide analogs of PX-12 (kinh/Ki); assay type: biochemical; settings: for Trx kinh/Ki: human thioredoxin, bimolecular parameter estimating potency; for Trx/DTT: ratio of reactivity towards Trx relative to DTT (selectivity)
T1 construct: made in house; host or cells: E. coli
T1 sequence (P10599 1-105): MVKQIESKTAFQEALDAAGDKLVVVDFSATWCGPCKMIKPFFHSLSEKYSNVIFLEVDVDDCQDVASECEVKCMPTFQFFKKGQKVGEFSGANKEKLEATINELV

[2] = Reactivity of disulfide inhibitors towards dithiothreitol
[3] = biological target: T2, human TG2 (Homo sapiens, UniProt P21980); assay: TG2 inhibition kinetics (kinh/Ki); assay type: biochemical
T2 sequence (P21980 1-687): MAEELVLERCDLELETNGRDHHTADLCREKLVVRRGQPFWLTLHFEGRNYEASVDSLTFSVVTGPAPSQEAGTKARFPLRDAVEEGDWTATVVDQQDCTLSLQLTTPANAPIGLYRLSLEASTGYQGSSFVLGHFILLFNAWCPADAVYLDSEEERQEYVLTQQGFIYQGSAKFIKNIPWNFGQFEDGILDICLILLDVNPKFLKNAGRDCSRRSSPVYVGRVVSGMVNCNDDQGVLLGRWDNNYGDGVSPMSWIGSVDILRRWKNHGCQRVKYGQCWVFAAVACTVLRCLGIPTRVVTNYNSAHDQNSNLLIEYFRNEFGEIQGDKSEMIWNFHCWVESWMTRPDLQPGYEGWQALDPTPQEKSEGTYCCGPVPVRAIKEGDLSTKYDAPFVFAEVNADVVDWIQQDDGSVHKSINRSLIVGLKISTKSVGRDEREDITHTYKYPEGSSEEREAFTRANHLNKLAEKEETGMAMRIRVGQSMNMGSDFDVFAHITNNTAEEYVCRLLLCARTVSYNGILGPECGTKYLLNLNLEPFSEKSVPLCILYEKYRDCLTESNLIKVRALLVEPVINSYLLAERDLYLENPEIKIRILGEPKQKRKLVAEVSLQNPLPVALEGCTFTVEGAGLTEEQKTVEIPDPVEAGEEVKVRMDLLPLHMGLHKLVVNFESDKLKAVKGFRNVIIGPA

[4] = biological target: T3, human transglutaminase 1 (TG1) (Homo sapiens, UniProt P22735); assay: TG1 inhibition kinetics (kinh/Ki); assay type: biochemical
T3 sequence (P22735 1-817): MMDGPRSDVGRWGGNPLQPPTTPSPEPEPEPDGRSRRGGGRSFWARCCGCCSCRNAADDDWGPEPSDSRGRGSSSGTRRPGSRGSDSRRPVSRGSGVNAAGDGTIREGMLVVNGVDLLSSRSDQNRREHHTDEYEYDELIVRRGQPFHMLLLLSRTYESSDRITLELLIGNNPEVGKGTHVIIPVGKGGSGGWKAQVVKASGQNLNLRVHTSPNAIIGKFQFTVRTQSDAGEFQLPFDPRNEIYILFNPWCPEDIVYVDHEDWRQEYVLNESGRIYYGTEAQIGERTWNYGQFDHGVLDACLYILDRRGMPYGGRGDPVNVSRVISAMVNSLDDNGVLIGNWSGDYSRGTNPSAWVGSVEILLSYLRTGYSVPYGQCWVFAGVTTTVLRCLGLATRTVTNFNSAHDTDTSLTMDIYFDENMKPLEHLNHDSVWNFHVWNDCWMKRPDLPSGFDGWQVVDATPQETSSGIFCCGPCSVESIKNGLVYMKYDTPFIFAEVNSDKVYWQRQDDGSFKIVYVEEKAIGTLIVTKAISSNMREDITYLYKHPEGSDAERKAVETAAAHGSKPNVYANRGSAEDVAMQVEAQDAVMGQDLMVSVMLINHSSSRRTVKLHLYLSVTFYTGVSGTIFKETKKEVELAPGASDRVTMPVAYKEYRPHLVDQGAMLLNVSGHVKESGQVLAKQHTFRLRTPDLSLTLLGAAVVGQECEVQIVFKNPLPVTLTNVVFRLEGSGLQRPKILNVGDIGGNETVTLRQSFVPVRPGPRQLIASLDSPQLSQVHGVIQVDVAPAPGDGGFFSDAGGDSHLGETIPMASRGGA

[5] = test system: TG2 activation in T84 monolayers; assay: IFN-γ induced TG2 activation in T84 monolayers, 5BP incorporation ELISA; assay type: cell-based, human; settings: IFN-γ up to 1000 U/mL, 25 μM ERW1041E
Procedure: FIG. 2. Dose and time dependence of TG2 activation in response to IFN-γ treatments of T84 monolayers measured in a quantitative enzyme linked immunosorbent type assay. T84 monolayers were treated for 1 to 72 hrs at 0-1000 U/mL IFN-γ with or without TG2 inhibition using 25 μM ERW1041E. TG2 activation was quantified by the amount of 5BP crosslinked to native proteins in the T84 cells as measured by tetramethylbenzidine turnover via streptavidin-HRP labeling. 5BP incorporation is dependent on IFN-γ exposure concentration. […] Data reported as mean+/−standard deviation.
FIG. 3. […] (B) Dose and time dependence of TG2 activation in response to IFN-γ treatments of T84 monolayers measured in a quantitative enzyme linked immunosorbent type assay. […] TG2 activation was quantified by the amount of 5BP crosslinked to native proteins in the T84 cells as measured by tetramethylbenzidine turnover via streptavidin-HRP labeling. […]
In addition to increasing the paracellular permeability of antigenic gluten peptides, we sought to determine if IFN-γ could activate TG2 in the extracellular matrix of mature T84 monolayers. […] To quantify the extent to which IFN-γ activates TG2 in the T84 model system, an enzyme linked immunosorbent assay (ELISA) was developed, using streptavidin conjugated to horseradish peroxidase. […]

[6] = test system: TG2 activation in T84 monolayers; assay: Thioredoxin-induced TG2 activation in T84 monolayers, 5BP incorporation ELISA; assay type: cell-based, human; settings: thioredoxin 0-10 μM, 3 hrs, 25 μM ERW1041E
Procedure: (§1) FIG. 7. Dose dependence of TG2 activation in response to recombinant human thioredoxin treatments of T84 and WI-38 monolayers measured in a quantitative enzyme linked immunosorbent type assay. Cellular monolayers were treated for 3 hrs at 0-10 μM thioredoxin with or without TG2 inhibition using 25 μM ERW1041E or with or without using 0-50 μM thioredoxin inhibitor PX-12. TG2 activation was quantified by the amount of 5BP crosslinked to native proteins in the extracellular matrix of cultured monolayers as measured by tetramethylbenzidine turnover via streptavidin-HRP labeling. (A) and (B) Illustrate the dependence of 5BP incorporation on thioredoxin exposure concentration in T84 and WI-38 cells, respectively. […] (C) and (D) Illustrate the dependence of 5BP incorporation on the ability of thioredoxin to activate TG2. TG2 activation was highest for control experiments with 0 μM PX-12. The amount of PX-12 required to reduce the 5BP incorporation in half at saturating concentrations of 3 μM thioredoxin in T84 and WI-38 cultures was 11 μM and 5 μM PX-12, respectively. […] Data reported as mean+/−standard deviation.
(§2) To test whether recombinant human thioredoxin could directly activate TG2 in cell culture, we used T84 and WI-38 monolayers in similar assays as described herein. T84 and WI-38 cells were grown into mature monolayers at which point varying amounts of pre-reduced thioredoxin were added to the culture medium along with 5BP and/or small molecule inhibitors, such as the TG2 inhibitor, ERW1041E, or the thioredoxin inhibitor, PX-12. 5BP incorporated into the extracellular matrix of cultured monolayers via activated TG2 was then quantified.

[7] = test system: TG2 activation in WI-38 monolayers; assay: Thioredoxin-induced TG2 activation in WI-38 monolayers, 5BP incorporation ELISA; assay type: cell-based, human; settings: thioredoxin 0-10 μM, 3 hrs, 25 μM ERW1041E
Procedure: as §1, §2

| Structure (SMILES) | Trx kinh/Ki [1] | Trx/DTT [1] | DTT k [2] [M⁻¹ s⁻¹] | kinh/Ki TG2 [3] [M⁻¹ s⁻¹] | also measured |
| --- | --- | --- | --- | --- | --- |
| CCC(C)SSc1nccs1 (stereo not shown) [compound 14] | 833 M⁻¹ s⁻¹ | 68 | 12.3 | – | – |
| CCC(C)SSc1nc2ccccc2o1 (stereo not shown) [compound 12] | 40000 M⁻¹ s⁻¹ | 392 | 102 | – | – |
| O=C(NC[C@@H]1CC(Br)=NO1)[C@@H]1C[C@@H](F)CN1C(=O)OCc1cnc2ccccc2c1 [compound 18] | – | – | – | 120.8 | kinh/Ki TG1 [4]: 111.6 M⁻¹ s⁻¹ |
| c1ccc2[nH]c(SSC3CCCCC3)nc2c1 [compound 7] | 6330 M⁻¹ s⁻¹ | 83 | 76.7 | – | – |
| CC(C)SSc1nc2ccccc2[nH]1 [compound 8] | 5500 M⁻¹ s⁻¹ | 72 | 76.7 | – | – |
| O=C(NC[C@@H]1CC(Br)=NO1)[C@@H]1C[C@H](F)CN1C(=O)OCc1cnc2ccccc2c1 [compound 19] | – | – | – | 223.93 | kinh/Ki TG1 [4]: 100.7 M⁻¹ s⁻¹ |
| O=C(NC[C@@H]1CC(Br)=NO1)[C@@H]1C[C@@H](O)CN1C(=O)OCc1cnc2ccccc2c1 [compound 20] | – | – | – | 208.52 | kinh/Ki TG1 [4]: 73.12 M⁻¹ s⁻¹ |
| C#CCO[C@@H]1C[C@@H](C(=O)NC[C@@H]2CC(Br)=NO2)N(C(=O)OCc2cnc3ccccc3c2)C1 [compound 23] | – | – | – | 142 | kinh/Ki TG1 [4]: 72.33 M⁻¹ s⁻¹ |
| CC(C)(C)SSc1nc2ccccc2[nH]1 [compound 6] | – | – | ~0.467 | – | – |
| CCC(C)SSc1nc2cc([N+](=O)[O-])ccc2[nH]1 (stereo not shown) [compound 9] | 14500 M⁻¹ s⁻¹ | 362 | 40 | – | – |
| CCC(C)SSc1nc2ccncc2[nH]1 (stereo not shown) [compound 10] | 3170 M⁻¹ s⁻¹ | 85 | 36.7 | – | – |
| O=C(NC[C@@H]1CC(Br)=NO1)[C@@H]1Cc2c([nH]c3ccccc23)CN1C(=O)OCc1cnc2ccccc2c1 [compound 25] | – | – | – | 346.67 | – |
| c1ccc2[nH]c(SSC3CCCC3)nc2c1 [compound 5] | 4000 M⁻¹ s⁻¹ | 74 | 53.3 | – | – |
| CCC(C)SSc1ccccn1 (stereo not shown) [compound 13] | inactive | – | 0.617 | – | – |
| O=C(NC[C@@H]1CC(Br)=NO1)[C@@H]1CCCCN1C(=O)OCc1cnc2ccccc2c1 [compound 26] | – | – | – | 138.3 | kinh/Ki TG1 [4]: 384.87 M⁻¹ s⁻¹ |
| CCC(C)SSc1nc2cc([N+](=O)[O-])ccc2s1 (stereo not shown) [compound 16] | 5830 M⁻¹ s⁻¹ | 175 | 33.3 | – | – |
| CCC(C)SSc1nc2cccc(C)c2s1 (stereo not shown) [compound 17] | 817 M⁻¹ s⁻¹ | 82 | 10 | – | – |
| O=C(NC[C@@H]1CC(Br)=NO1)[C@@H]1Cc2ccccc2CN1C(=O)OCc1cnc2ccccc2c1 [compound 24] | – | – | – | 130 | – |
| O=C(NC[C@@H]1CC(Br)=NO1)[C@@H]1C[C@@H](OCc2ccccc2)CN1C(=O)OCc1cnc2ccccc2c1 [compound 22] | – | – | – | 128.5 | – |
| CCSSc1nc2ccccc2[nH]1 [compound 4] | – | – | 900 | – | – |
| CCC(C)SSc1nc2cc(Cl)ccc2s1 (stereo not shown) [compound 15] | 250 M⁻¹ s⁻¹ | 88 | 2.83 | – | – |
| O=C(NC[C@@H]1CC(Br)=NO1)[C@@H]1CCCN1C(=O)OCc1cnc2ccccc2c1 [compound 2] | – | – | – | 283.15 | kinh/Ki TG1 [4]: 220.37 M⁻¹ s⁻¹; TG2 activation (5BP incorporation) [5]: completely blocked 5BP incorporation; also recorded: reduced to basal levels; TG2 activation (5BP incorporation) in response to thioredoxin [6]: completely negates; also recorded: reduced to basal levels; TG2 activation (5BP incorporation) in response to thioredoxin [7]: completely negates; also recorded: reduced to basal levels |
| CCC(C)SSc1nc2ccccc2[nH]1 (stereo not shown) [compound 3] | 3170 M⁻¹ s⁻¹ | 39 | 80 | – | – |
